Measurements: patent publication US6500431B1, “Inhibitors of angiogenesis and tumor growth” (University of Southern California, priority 1998, dated 2002)
No end group written: not given here.

Assays:
Assay type in all cases: cell-based
endothelial cells = assay: Endothelial cell migration assay, fibronectin-coated transwell; settings: chemotaxis induced by VEGF or bFGF
Description: (§1) The assays were done in double chamber wells separated by […] membrane. Chemotaxis was induced by bFGF (25 ng/mL) in the lower chamber. Endothelial cells or KS cells (5×10^4/mL) were placed in the upper chamber in the presence and absence of test polypeptides. Taxol at 10 ng/mL was used as a known inhibitor of migration. Cell migration across the membrane was quantitated after an overnight incubation.
Angiogenesis is mediated by complex biochemical processes including degradation of the basement membrane under existing blood vessel endothelial cells, followed by proliferation and migration of endothelial cells, followed by formation of capillary loops, and recruitment of vascular smooth muscle cells to encase the newly formed vessels and provide stability. […]
Briefly, wells were coated with fibronectin (25 μg/mL) overnight, and endothelial cells or KS cells were plated in the upper chamber with 100 μL of DMEM/0.4% FCS. […] The plates were incubated for 5 hr at 37° C. and the cells crossing the fibronectin-coated membrane were counted after wiping the cells off the membrane in the upper chamber with a cotton swab.
The cells that traversed the membrane were fixed with Diff-Quik stain according to the manufacturer's instruction (Dade Diagnostics Inc., Aguada, PR). The cells were counted under a microscope at 320× in four randomly selected fields. […]

KS Y-1 cells [1] = assay: KS Y-1 cell proliferation assay (MTT); settings: concentration not printed, 5 days, MTT
Description: (§2) To determine if Saposin B polypeptides had anti-angiogenic activity, a series of overlapping polypeptides were synthesized and tested in the KS Y-1 cell proliferation assay. The overlapping polypeptides are SEQ ID NOS:13 though 42. Cell Proliferation assays in either KS cells or fibroblast. Cells were plated in 48 well plates at equal numbers in appropriate culture medium. Cells were treated with the test compounds at various concentrations on day one, and on day 3. MTT was done on day 5. KS cells were used to represent the activated endothelial cells, while fibroblast cells represent the control cells. The results are remarkable for the lack of toxicity to the fibroblast relative to the activated endothelial cells/KS cells.

T1 cells = assay: Fibroblast proliferation assay (MTT); settings: 5000 T1 cells/well, 7 days
Description: as §2, with “MTT was done on day 5.” left out

KS Y-1 cells [2] = assay: KS cell migration assay, fibronectin-coated transwell; settings: 50,000 KS Y-1 cells/well, 25 ng/mL bFGF, overnight
Description: as §1
Angiogenesis is mediated by complex biochemical processes including degradation of the basement membrane under existing blood vessel endothelial cells, followed by proliferation and migration of endothelial cells, followed by formation of capillary loops, and recruitment of vascular smooth muscle cells to encase the newly formed vessels and provide stability. KS and endothelial cell migration in the presence of Saposin B was studied in transwell culture plates with 8 μm pore membranes (Costar, Cambridge, Mass.).
Briefly, wells were coated with fibronectin (25 μg/mL) overnight, and endothelial cells or KS cells were plated in the upper chamber with 100 μL of DMEM/0.4% FCS. 500 μL of DMEM/0.4% FCS was added to the lower chamber and incubated at 37° C. for one hour. The test polypeptides, at various concentrations, were added to the upper chamber, and chemotactic agents (VEGF or bFGF at 20 ng/mL) were added to the lower cell-culture chambers. The plates were incubated for 5 hr at 37° C. and the cells crossing the fibronectin-coated membrane were counted after wiping the cells off the membrane in the upper chamber with a cotton swab.
The cells that traversed the membrane were fixed with Diff-Quik stain according to the manufacturer's instruction (Dade Diagnostics Inc., Aguada, PR). The cells were counted under a microscope at 320× in four randomly selected fields. The experiments were done in duplicate and repeated at least three times.

[3] = Activity of truncated recombinant Saposin B (FIG. 1C); settings: cell type not given
Source text: FIG. 1C: Activity of truncated recombinant Saposin B. Saposin (Sap) B 1-69 (consisting of the first 69 amino acids), Sap B 1-42 (consisting of the first 42 amino acids), Sap B 11-81 (consisting of 11-81 amino acids and thus lacking the first 10 amino acids).

## CC(=O)O[C@H]1C(=O)[C@@]2(C)[C@H]([C@H](OC(=O)c3ccccc3)[C@]3(O)C[C@H](OC(=O)[C@H](O)[C@@H](NC(=O)c4ccccc4)c4ccccc4)C(C)=C1C3(C)C)[C@]1(OC(C)=O)CO[C@@H]1C[C@@H]2O [paclitaxel, reference compound]
Endothelial cells
  inhibition of endothelial cell migration: did not completely inhibit

## GDVCQDCIQMV [SEQ ID NO:19]
KS Y-1 cells [1]; first of two KSY-1 value columns
  Cell Proliferation Activity (% of control), KSY-1: 28 % of control
KS Y-1 cells [1]; second of two KSY-1 value columns
  Cell Proliferation Activity (% of control), KSY-1: 8 % of control
T1 cells; 1 μg/mL
  Fibroblast Proliferation, % of Control: 91.3 % of Control
T1 cells; 10 μg/mL
  Fibroblast Proliferation, % of Control: 91.3 % of Control
T1 cells; 50 μg/mL
  Fibroblast Proliferation, % of Control: 82.6 % of Control
KS Y-1 cells [2]; 1 μg/mL
  % Cells Migrating Through Membrane (of Control): 78.23 % (of Control)
KS Y-1 cells [2]; 50 μg/mL
  % Cells Migrating Through Membrane (of Control): 20.98 % (of Control)
KS Y-1 cells [2]
  % Cells Migrating Through Membrane (of Control): 40.32 % (of Control)

## Sap B 1-42: truncated recombinant Saposin B consisting of the first 42 amino acids (GDVCQDCIQMVTDIQTAVRTNSTFVQALVEHVKEECDRLGPG; ends and bridges not checked; cysteine pairing not given here; UniProt P07602 195-236, looked up, fragment)
[3]
  growth inhibition by truncated recombinant Saposin B: dose dependent growth inhibition
